system: ES3; assay: cells; assay type: functional, cell-based, Homo sapiens; conditions: Homo sapiens, ES3;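 further: growth inhibition of ES3 cells, read out with a cell viability assay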
Description: SANGER: Inhibition of human ES3 cell growth in a cell viability assay.

SMILES	IC50 [µM]
NC(=O)c1cccc(-c2cc(Nc3ccc(OC(F)(F)F)cc3)ncn2)c1	> 1.28

system: KNS-81-FD; assay: cells; assay type: functional, cell-based, Homo sapiens; conditions: Homo sapiens, KNS-81-FD;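 further: growth inhibition of KNS-81-FD cells, read out with a cell viability assay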
Description: SANGER: Inhibition of human KNS-81-FD cell growth in a cell viability assay.

SMILES	IC50 [µM]
NC(=O)c1cccc(-c2cc(Nc3ccc(OC(F)(F)F)cc3)ncn2)c1	> 1.28

system: MLMA; assay: cells; assay type: functional, cell-based, Homo sapiens; conditions: Homo sapiens, MLMA;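 further: growth inhibition of MLMA cells (human), determined through a cell viability readout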
Description: SANGER: Inhibition of human MLMA cell growth in a cell viability assay.

SMILES	IC50 [µM]
NC(=O)c1cccc(-c2cc(Nc3ccc(OC(F)(F)F)cc3)ncn2)c1	> 1.28

system: CGTH-W-1; assay: cells; assay type: functional, cell-based, Homo sapiens; conditions: Homo sapiens, CGTH-W-1;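 further: growth inhibition of human CGTH-W-1 cells measured by cell viability assay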
Description: SANGER: Inhibition of human CGTH-W-1 cell growth in a cell viability assay.

SMILES	IC50 [µM]
NC(=O)c1cccc(-c2cc(Nc3ccc(OC(F)(F)F)cc3)ncn2)c1	> 1.28

system: PSN1; assay: cells; assay type: functional, cell-based, Homo sapiens; conditions: Homo sapiens, PSN1;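 further: suppression of growth of human PSN1 cells, read out by a cell viability assay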
Description: SANGER: Inhibition of human PSN1 cell growth in a cell viability assay.

SMILES	IC50 [µM]
NC(=O)c1cccc(-c2cc(Nc3ccc(OC(F)(F)F)cc3)ncn2)c1	> 1.28

system: U-266; assay: cells; assay type: functional, cell-based, Homo sapiens; conditions: Homo sapiens, U-266
Description: SANGER: Inhibition of human U-266 cell growth in a cell viability assay.

SMILES	IC50 [µM]
NC(=O)c1cccc(-c2cc(Nc3ccc(OC(F)(F)F)cc3)ncn2)c1	> 1.28

system: LC-2-ad; assay: cells; assay type: functional, cell-based, Homo sapiens; conditions: Homo sapiens, LC-2-ad;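 further: growth inhibition of human LC-2-ad cells, read out with a cell viability assay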
Description: SANGER: Inhibition of human LC-2-ad cell growth in a cell viability assay.

SMILES	IC50 [µM]
NC(=O)c1cccc(-c2cc(Nc3ccc(OC(F)(F)F)cc3)ncn2)c1	> 1.28

system: JVM-3; assay: cells; assay type: functional, cell-based, Homo sapiens; conditions: Homo sapiens, JVM-3;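 further: growth inhibition of human JVM-3 cells, read out with a cell viability assay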
Description: SANGER: Inhibition of human JVM-3 cell growth in a cell viability assay.

SMILES	IC50 [µM]
NC(=O)c1cccc(-c2cc(Nc3ccc(OC(F)(F)F)cc3)ncn2)c1	> 1.28

system: LS-411N; assay: cells; assay type: functional, cell-based, Homo sapiens; conditions: Homo sapiens, LS-411N

SMILES	IC50 [µM]
NC(=O)c1cccc(-c2cc(Nc3ccc(OC(F)(F)F)cc3)ncn2)c1	> 1.28

system: SK-MEL-2; assay: cells; assay type: functional, cell-based, Homo sapiens; conditions: Homo sapiens, SK-MEL-2;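 further: growth inhibition of human SK-MEL-2 cells measured with a cell viability assay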
Description: SANGER: Inhibition of human SK-MEL-2 cell growth in a cell viability assay.

SMILES	IC50 [µM]
NC(=O)c1cccc(-c2cc(Nc3ccc(OC(F)(F)F)cc3)ncn2)c1	> 1.28

system: HT; assay: cells; assay type: functional, cell-based, Homo sapiens; conditions: Homo sapiens, HT
Description: SANGER: Inhibition of human HT cell growth in a cell viability assay.

SMILES	IC50 [µM]
NC(=O)c1cccc(-c2cc(Nc3ccc(OC(F)(F)F)cc3)ncn2)c1	> 1.28

system: KARPAS-299; assay: cells; assay type: functional, cell-based, Homo sapiens; conditions: Homo sapiens, KARPAS-299
Description: SANGER: Inhibition of human KARPAS-299 cell growth in a cell viability assay.

SMILES	IC50 [µM]
NC(=O)c1cccc(-c2cc(Nc3ccc(OC(F)(F)F)cc3)ncn2)c1	> 1.28

system: EW-1; assay: cells; assay type: functional, cell-based, Homo sapiens; conditions: Homo sapiens, EW-1;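 further: growth inhibition of the human EW-1 cell line, read out by a cell viability assay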
Description: SANGER: Inhibition of human EW-1 cell growth in a cell viability assay.

SMILES	IC50 [µM]
NC(=O)c1cccc(-c2cc(Nc3ccc(OC(F)(F)F)cc3)ncn2)c1	> 1.28

system: MN-60; assay: cells; assay type: functional, cell-based, Homo sapiens; conditions: Homo sapiens, MN-60;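 further: growth inhibition of the MN-60 cell line, determined with a cell viability assay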
Description: SANGER: Inhibition of human MN-60 cell growth in a cell viability assay.

SMILES	IC50 [µM]
NC(=O)c1cccc(-c2cc(Nc3ccc(OC(F)(F)F)cc3)ncn2)c1	> 1.28

system: D-247MG; assay: cells; assay type: functional, cell-based; conditions: Homo sapiens
Description: SANGER: Inhibition of human D-247MG cell growth in a cell viability assay.

SMILES	IC50 [µM]
NC(=O)c1cccc(-c2cc(Nc3ccc(OC(F)(F)F)cc3)ncn2)c1	> 1.28

system: RKO; assay: cells; assay type: functional, cell-based, Homo sapiens; conditions: Homo sapiens, RKO;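 further: growth inhibition of human RKO cells, read out with a cell viability assay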
Description: SANGER: Inhibition of human RKO cell growth in a cell viability assay.

SMILES	IC50 [µM]
NC(=O)c1cccc(-c2cc(Nc3ccc(OC(F)(F)F)cc3)ncn2)c1	> 1.28

system: J-RT3-T3-5; assay: cells; assay type: functional, cell-based, Homo sapiens; conditions: Homo sapiens, J-RT3-T3-5;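 further: cell viability assay measuring growth inhibition of human J-RT3-T3-5 cells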
Description: SANGER: Inhibition of human J-RT3-T3-5 cell growth in a cell viability assay.

SMILES	IC50 [µM]
NC(=O)c1cccc(-c2cc(Nc3ccc(OC(F)(F)F)cc3)ncn2)c1	> 1.28

system: NCI-H1092; assay: cells; assay type: functional, cell-based, Homo sapiens; conditions: Homo sapiens, NCI-H1092;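 further: cell growth inhibition measured with a cell viability assay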
Description: SANGER: Inhibition of human NCI-H1092 cell growth in a cell viability assay.

SMILES	IC50 [µM]
NC(=O)c1cccc(-c2cc(Nc3ccc(OC(F)(F)F)cc3)ncn2)c1	> 1.28

system: TGBC1TKB; assay: cells; assay type: functional, cell-based, Homo sapiens; conditions: Homo sapiens, TGBC1TKB;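 further: growth inhibition of TGBC1TKB cells, read out by a cell viability assay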
Description: SANGER: Inhibition of human TGBC1TKB cell growth in a cell viability assay.

SMILES	IC50 [µM]
NC(=O)c1cccc(-c2cc(Nc3ccc(OC(F)(F)F)cc3)ncn2)c1	> 1.28

system: DSH1; assay: cells; assay type: functional, cell-based; conditions: Homo sapiens;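 further: growth inhibition of human DSH1 cells, measured with a cell viability readout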
Description: SANGER: Inhibition of human DSH1 cell growth in a cell viability assay.

SMILES	IC50 [µM]
NC(=O)c1cccc(-c2cc(Nc3ccc(OC(F)(F)F)cc3)ncn2)c1	> 1.28

system: RS4-11; assay: cells; assay type: functional, cell-based, Homo sapiens; conditions: Homo sapiens, RS4-11;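 further: growth inhibition of RS4-11 cells, read out by a cell viability assay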
Description: SANGER: Inhibition of human RS4-11 cell growth in a cell viability assay.

SMILES	IC50 [µM]
NC(=O)c1cccc(-c2cc(Nc3ccc(OC(F)(F)F)cc3)ncn2)c1	> 1.28

system: NCI-H1581; assay: cells; assay type: functional, cell-based, Homo sapiens; conditions: Homo sapiens, NCI-H1581;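 further: cell growth inhibition read out by a viability assay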
Description: SANGER: Inhibition of human NCI-H1581 cell growth in a cell viability assay.

SMILES	IC50 [µM]
NC(=O)c1cccc(-c2cc(Nc3ccc(OC(F)(F)F)cc3)ncn2)c1	> 1.28

system: KU812 cell line; assay: cells; assay type: functional, cell-based, Homo sapiens; conditions: Homo sapiens, KU812;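 further: growth inhibition of KU812 cells, read out with a cell viability assay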
Description: SANGER: Inhibition of human KU812 cell growth in a cell viability assay.

SMILES	IC50 [µM]
NC(=O)c1cccc(-c2cc(Nc3ccc(OC(F)(F)F)cc3)ncn2)c1	> 1.28

system: TE-11; assay: cells; assay type: functional, cell-based; conditions: Homo sapiens;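 further: growth inhibition of human TE-11 cells, read out by a cell viability assay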
Description: SANGER: Inhibition of human TE-11 cell growth in a cell viability assay.

SMILES	IC50 [µM]
NC(=O)c1cccc(-c2cc(Nc3ccc(OC(F)(F)F)cc3)ncn2)c1	> 1.28

system: D-263MG; assay: cells; assay type: functional, cell-based, Homo sapiens; conditions: Homo sapiens, D-263MG
Description: SANGER: Inhibition of human D-263MG cell growth in a cell viability assay.

SMILES	IC50 [µM]
NC(=O)c1cccc(-c2cc(Nc3ccc(OC(F)(F)F)cc3)ncn2)c1	> 1.28

system: OCI-AML2; assay: cells; assay type: functional, cell-based, Homo sapiens; conditions: Homo sapiens, OCI-AML2;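 further: growth inhibition of OCI-AML2 cells, read out with a cell viability assay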
Description: SANGER: Inhibition of human OCI-AML2 cell growth in a cell viability assay.

SMILES	IC50 [µM]
NC(=O)c1cccc(-c2cc(Nc3ccc(OC(F)(F)F)cc3)ncn2)c1	> 1.28

system: NCI-H446; assay: cells; assay type: functional, cell-based, Homo sapiens; conditions: Homo sapiens, NCI-H446;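 further: growth inhibition of NCI-H446 cells determined by a cell viability assay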
Description: SANGER: Inhibition of human NCI-H446 cell growth in a cell viability assay.

SMILES	IC50 [µM]
NC(=O)c1cccc(-c2cc(Nc3ccc(OC(F)(F)F)cc3)ncn2)c1	> 1.28

system: BB65-RCC; assay: cells; assay type: functional, cell-based, Homo sapiens; conditions: Homo sapiens, BB65-RCC;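 further: growth inhibition of the cell line, measured with a cell viability assay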
Description: SANGER: Inhibition of human BB65-RCC cell growth in a cell viability assay.

SMILES	IC50 [µM]
NC(=O)c1cccc(-c2cc(Nc3ccc(OC(F)(F)F)cc3)ncn2)c1	> 1.28

system: HCE-4; assay: cells; assay type: functional, cell-based; conditions: Homo sapiens;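 further: cell viability assay measuring inhibition of growth in the human HCE-4 cell line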
Description: SANGER: Inhibition of human HCE-4 cell growth in a cell viability assay.

SMILES	IC50 [µM]
NC(=O)c1cccc(-c2cc(Nc3ccc(OC(F)(F)F)cc3)ncn2)c1	> 1.28

system: MZ1-PC; assay: cells; assay type: functional, cell-based, Homo sapiens; conditions: Homo sapiens, MZ1-PC;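 further: cell viability assay measuring growth inhibition of human MZ1-PC cells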
Description: SANGER: Inhibition of human MZ1-PC cell growth in a cell viability assay.

SMILES	IC50 [µM]
NC(=O)c1cccc(-c2cc(Nc3ccc(OC(F)(F)F)cc3)ncn2)c1	> 1.28

system: EW-3; assay: cells; assay type: functional, cell-based, Homo sapiens; conditions: Homo sapiens, EW-3;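 further: cell viability assay read-out, IC50 reflects inhibition of growth of the EW-3 cells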
Description: SANGER: Inhibition of human EW-3 cell growth in a cell viability assay.

SMILES	IC50 [µM]
NC(=O)c1cccc(-c2cc(Nc3ccc(OC(F)(F)F)cc3)ncn2)c1	> 1.28

system: ES1; assay: cells; assay type: functional, cell-based, Homo sapiens; conditions: Homo sapiens, ES1;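 further: growth inhibition of ES1 cells, read out with a cell viability assay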
Description: SANGER: Inhibition of human ES1 cell growth in a cell viability assay.

SMILES	IC50 [µM]
NC(=O)c1cccc(-c2cc(Nc3ccc(OC(F)(F)F)cc3)ncn2)c1	> 1.28

system: A253 cell line; assay: cells; assay type: functional, cell-based, Homo sapiens; conditions: Homo sapiens, A253;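 further: growth inhibition of A253 cells, read out with a cell viability assay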
Description: SANGER: Inhibition of human A253 cell growth in a cell viability assay.

SMILES	IC50 [µM]
NC(=O)c1cccc(-c2cc(Nc3ccc(OC(F)(F)F)cc3)ncn2)c1	> 1.28

system: TE-5; assay: cells; assay type: functional, cell-based, Homo sapiens; conditions: Homo sapiens, TE-5;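 further: inhibition of cell growth, read out by a cell viability assay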
Description: SANGER: Inhibition of human TE-5 cell growth in a cell viability assay.

SMILES	IC50 [µM]
NC(=O)c1cccc(-c2cc(Nc3ccc(OC(F)(F)F)cc3)ncn2)c1	> 1.28

system: NCI-H1648; assay: cells; assay type: functional, cell-based, Homo sapiens; conditions: Homo sapiens, NCI-H1648;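 further: cell viability assay measuring inhibition of NCI-H1648 cell growth, from the Sanger screening data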
Description: SANGER: Inhibition of human NCI-H1648 cell growth in a cell viability assay.

SMILES	IC50 [µM]
NC(=O)c1cccc(-c2cc(Nc3ccc(OC(F)(F)F)cc3)ncn2)c1	> 1.28

system: KP-N-YS; assay: cells; assay type: functional, cell-based, Homo sapiens; conditions: Homo sapiens, KP-N-YS;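 further: cell viability assay measuring inhibition of cell line growth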
Description: SANGER: Inhibition of human KP-N-YS cell growth in a cell viability assay.

SMILES	IC50 [µM]
NC(=O)c1cccc(-c2cc(Nc3ccc(OC(F)(F)F)cc3)ncn2)c1	> 1.28

system: KALS-1; assay: cells; assay type: functional, cell-based, Homo sapiens; conditions: Homo sapiens, KALS-1; read-out: IC50;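 further: growth inhibition of KALS-1 cells, determined with a cell viability assay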
Description: SANGER: Inhibition of human KALS-1 cell growth in a cell viability assay.

SMILES	IC50 [µM]
NC(=O)c1cccc(-c2cc(Nc3ccc(OC(F)(F)F)cc3)ncn2)c1	> 1.28

system: NOS-1; assay: cells; assay type: functional, cell-based, Homo sapiens; conditions: Homo sapiens, NOS-1;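 further: growth inhibition of the human NOS-1 cell line, read out with a cell viability assay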
Description: SANGER: Inhibition of human NOS-1 cell growth in a cell viability assay.

SMILES	IC50 [µM]
NC(=O)c1cccc(-c2cc(Nc3ccc(OC(F)(F)F)cc3)ncn2)c1	0.571

system: LU-134-A; assay: cells; assay type: functional, cell-based, Homo sapiens; conditions: Homo sapiens, LU-134-A
Description: SANGER: Inhibition of human LU-134-A cell growth in a cell viability assay.

SMILES	IC50 [µM]
NC(=O)c1cccc(-c2cc(Nc3ccc(OC(F)(F)F)cc3)ncn2)c1	> 1.28

system: BT-474; assay: cells; assay type: functional, cell-based, Homo sapiens; conditions: Homo sapiens, BT-474
Description: SANGER: Inhibition of human BT-474 cell growth in a cell viability assay.

SMILES	IC50 [µM]
NC(=O)c1cccc(-c2cc(Nc3ccc(OC(F)(F)F)cc3)ncn2)c1	> 1.28

system: OMC-1; assay: cells; assay type: functional, cell-based, Homo sapiens; conditions: Homo sapiens, OMC-1;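 further: growth inhibition of the OMC-1 cell line, measured by a cell viability assay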
Description: SANGER: Inhibition of human OMC-1 cell growth in a cell viability assay.

SMILES	IC50 [µM]
NC(=O)c1cccc(-c2cc(Nc3ccc(OC(F)(F)F)cc3)ncn2)c1	> 1.28

system: UACC-257; assay: cells; assay type: functional, cell-based, Homo sapiens; conditions: Homo sapiens, UACC-257
Description: SANGER: Inhibition of human UACC-257 cell growth in a cell viability assay.

SMILES	IC50 [µM]
NC(=O)c1cccc(-c2cc(Nc3ccc(OC(F)(F)F)cc3)ncn2)c1	> 1.28

system: KG-1; assay: cells; assay type: functional, cell-based, Homo sapiens; conditions: Homo sapiens, KG-1;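 further: growth inhibition of KG-1 cells, read out by a cell viability assay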
Description: SANGER: Inhibition of human KG-1 cell growth in a cell viability assay.

SMILES	IC50 [µM]
NC(=O)c1cccc(-c2cc(Nc3ccc(OC(F)(F)F)cc3)ncn2)c1	> 1.28

system: KY821; assay: cells; assay type: functional, cell-based, Homo sapiens; conditions: Homo sapiens, KY821;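 further: growth inhibition of human KY821 cells, read out by a cell viability assay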
Description: SANGER: Inhibition of human KY821 cell growth in a cell viability assay.

SMILES	IC50 [µM]
NC(=O)c1cccc(-c2cc(Nc3ccc(OC(F)(F)F)cc3)ncn2)c1	> 1.28

system: KM12; assay: cells; assay type: functional, cell-based, Homo sapiens; conditions: Homo sapiens, KM12;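 further: KM12 cell growth inhibition, read out with a cell viability assay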
Description: SANGER: Inhibition of human KM12 cell growth in a cell viability assay.

SMILES	IC50 [µM]
NC(=O)c1cccc(-c2cc(Nc3ccc(OC(F)(F)F)cc3)ncn2)c1	> 1.28

system: NCI-H526; assay: cells; assay type: functional, cell-based, Homo sapiens; conditions: Homo sapiens, NCI-H526;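 further: growth inhibition of the human NCI-H526 cell line, measured by a cell viability assay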
Description: SANGER: Inhibition of human NCI-H526 cell growth in a cell viability assay.

SMILES	IC50 [µM]
NC(=O)c1cccc(-c2cc(Nc3ccc(OC(F)(F)F)cc3)ncn2)c1	> 1.28

system: NCI-H1770; assay: cells; assay type: functional, cell-based, Homo sapiens; conditions: Homo sapiens, NCI-H1770;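 further: growth inhibition of NCI-H1770 cells determined with a viability readout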
Description: SANGER: Inhibition of human NCI-H1770 cell growth in a cell viability assay.

SMILES	IC50 [µM]
NC(=O)c1cccc(-c2cc(Nc3ccc(OC(F)(F)F)cc3)ncn2)c1	> 1.28

system: SW 962; assay: cells; assay type: functional, cell-based, Homo sapiens; conditions: Homo sapiens, SW 962;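 further: growth inhibition of human SW962 cells, read out by a cell viability assay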
Description: SANGER: Inhibition of human SW962 cell growth in a cell viability assay.

SMILES	IC50 [µM]
NC(=O)c1cccc(-c2cc(Nc3ccc(OC(F)(F)F)cc3)ncn2)c1	> 1.28

system: SNU1; assay: cells; assay type: functional, cell-based, Homo sapiens; conditions: Homo sapiens, SNU1;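 further: growth inhibition of human NCI-SNU-1 cells, measured with a cell viability assay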
Description: SANGER: Inhibition of human NCI-SNU-1 cell growth in a cell viability assay.

SMILES	IC50 [µM]
NC(=O)c1cccc(-c2cc(Nc3ccc(OC(F)(F)F)cc3)ncn2)c1	> 1.28

system: COLO-824; assay: cells; assay type: functional, cell-based, Homo sapiens; conditions: Homo sapiens, COLO-824
Description: SANGER: Inhibition of human COLO-824 cell growth in a cell viability assay.

SMILES	IC50 [µM]
NC(=O)c1cccc(-c2cc(Nc3ccc(OC(F)(F)F)cc3)ncn2)c1	> 1.28
